Where two headings read alike, the source gives them in different places.
Columns and labels:
[1] = test system: HepG2 cells; conditions: for IC50: read-out: MMP assays IC50 (µM) HepG2
[2] = test system: rat primary hepatocytes; test: MMP assay in rat primary hepatocytes; conditions: for IC50: read-out: MMP assays IC50 (µM) Rat Hepatocytes
[3] = test system: HepG2 cells; conditions: cited from earlier work
[4] = HepG2 cells, single number from one experiment
[5] = rat hepatocytes, mean ± SD of three experiments
[6] = read-out: MMP assays IC50 (µM), qHTS-HepG2
[7] = read-out: MMP assays IC50 (µM) qHTS-HepG2

Structure (SMILES) | MMP assays efficacy (%) HepG2 [1, 4] | IC50 [1, 4] [µM] | MMP assays IC50 (µM) Rat Hepatocytes [2, 5] | MMP assays efficacy (%) Rat Hepatocytes [2, 5] | MMP assays efficacy (%) qHTS-HepG2 [3] | IC50 [3, 6] [µM] | MMP assays IC50 (µM) HepG2 [1] | MMP assays efficacy (%) HepG2 [1] | MMP assays IC50 (µM) Rat Hepatocytes [2] | MMP assays IC50 (µM) qHTS-HepG2 [3] | MMP assays IC50 (µM) HepG2 [1, 4] | IC50 ([2]; Rattus norvegicus, Hepatocyte) [µM] | IC50 [3, 7] [µM] | IC50 [2, 5] [µM]
C#C[C@]1(OC(=O)CCCCCC)CC[C@H]2[C@@H]3CCC4=CC(=O)CC[C@@H]4[C@H]3CC[C@@]21C [Noristerat] | -117% | 21.8 | inactive | inactive | -87±18% | 9.81 ± 1.78 |  |  |  |  |  |  |  | 
CCCCC/C(C=O)=C/c1ccccc1 [Amyl cinnamal] |  |  |  |  | inactive |  | inactive | inactive | inactive | inactive |  |  |  | 
CCCCCCCC[N+](CCCCCCCC)(CCCCCCCC)CCCCCCCC.[Br-] [tetra-N-Octylammonium bromide] | -92% | 0.13 | inactive | inactive | -88±6% |  |  |  |  |  |  |  |  | 
O=C1c2ccccc2Cc2ccccc21 [Anthrone] | inactive |  |  | -68±22% | -70±4% |  |  |  |  |  | inactive | 42.4 ± 12 | 21.8 ± 9.9 | 
O=Cc1c2ccccc2c(Cl)c2ccccc12 [Compound 10-Chloro-9-anthraldehyde] | inactive |  |  | -47±21% | -82±26% |  |  |  |  |  | inactive |  | 13.9 ± 7.82 | 24.3 ± 28.8
CC(C)COC(=O)c1ccc(O)cc1 [Isobutylparaben] | -129% | 14.1 | inactive | inactive | -91±6% | 14.2 ± 1.82 |  |  |  |  |  |  |  | 
Nc1cc(Cl)c([N+](=O)[O-])cc1O [Compound 2-Amino-4-chloro-5-nitrophenol] | -107% | 25.1 |  | -47±13% | -104±19% |  |  |  |  |  |  |  | 21.5 ± 2.48 | 31.3 ± 8.72
COc1cc(Nc2c(C#N)cnc3cc(OCCCN4CCN(C)CC4)c(OC)cc23)c(Cl)cc1Cl [Bosutinib;PF-5208763/SKI-606] | -57% | 1.23 |  | -56±1% | -97±4% |  |  |  |  |  |  |  | 0.75 ± 0.48 | 16.6 ± 11.2
CC(C)(C)NCC(O)CSc1nc(-c2ccc(C(N)=O)s2)cs1.Cl (stereo not shown) [Arotinolol hydrochloride] | -88% | 27.5 | inactive | inactive | -64±8% |  |  |  |  |  |  |  | 17 ± 3.45 | 
Cl.O=C1CSC2(CCN(CCCN3c4ccccc4Sc4ccc(Cl)cc43)CC2)N1 [Spiclomazine hydrochloride] | inactive |  | inactive | inactive | -107±11% | 34.8 ± 2.36 |  |  |  |  | inactive |  |  | 
CCCCCCCC[n+]1ccn(C)c1.O=S(=O)([O-])C(F)(F)F [1-Methyl-3-octylimidazolium trifluoromethanesulfonate] | -84% | 15.8 |  | -82±36% | -58±19% |  |  |  |  |  |  |  | 8.38 ± 4.29 | 31.6
CCC(=O)O[C@]1(C(=O)CCl)[C@@H](C)C[C@H]2[C@@H]3CCC4=CC(=O)C=C[C@]4(C)[C@@]3(F)[C@@H](O)C[C@@]21C [Clobetasol propionate] | inactive |  |  | -39±3% | -98±19% |  |  |  |  |  | inactive | 24.1 ± 9.54 | 24.6 ± 1.67 | 

Reference: PMC6112376, “Comprehensive Analyses and Prioritization of Tox21 10K Chemicals Affecting Mitochondrial Function by in-Depth Mechanistic Studies” (Environmental Health Perspectives, 2018)
